Test results reported in PubChem BioAssay AID2060907 (Molecular Pharmacology Branch, DTP, NCI, 2025).
One block for each compound: values may come before it.

Test system: 388556-164-R-J1-PDC complex spheroid viability
Assay: Anticancer human tumor 388556-164-R-J1-PDC patient-derived colon adenocarcinoma cell line growth inhibition [RAS]
Settings: for viability, T/C: stronger effect = lower value
Excerpt: RAS pathway inhibitors in Combinations in Complex Spheroids
A high-throughput screen of multi-cell type tumor spheroids was designed to identify active combinations of RAS pathway inhibitors and targeted small molecules. Complex spheroids include a stromal component modeled by human endothelial cells (HUVEC) and fibroblasts modeled by human mesenchymal stem cells (MSCs). The concentration ranges selected for each drug and investigational agent were based upon clinically achievable concentrations if the clinical Cmax of the agent was known.
Compounds. The drugs and investigational agents: abemaciclib (NSC768073), cobimetinib (NSC768068), divarasib (GDC6063, NSC841802), docetaxel (NSC628503), GDC-1971 (RLY-1971, NSC841576), gemcitabine (NSC613327), inavolisib (NSC800729), ipatasertib (NSC767898), KB-0742 (NSC834161), MRTX-1133 (NSC836407), osimertinib (NSC779217), RMC-4630 (NSC839698), RMC-6236 (NSC851965), RMC-6291 (NSC852671), Ro-3306 (NSC812927), sapanisertib (NSC764658), SN-38 (NSC673596), staurosporine (NSC755774), SY5609 (NSC837396), and tovorafenib (DAY101, NSC766906), were obtained from the National Cancer Institute (NCI) Developmental Therapeutics Program Chemical Repository. The FDA-approved anticancer drug set is available from the NCI Developmental Therapeutics Program. […] The stock solutions were prepared in dimethyl sulfoxide (DMSO, Sigma-Aldrich, St. Louis, MO, cat. D2650) at 800-fold the tested concentration and stored at -70 degrees C prior to their use. All drugs and investigational agents were tested over a range starting from a high concentration at or near the clinical Cmax and decreasing in half-log increments. If the clinical Cmax for an agent had not been determined, the highest concentration tested was 10 microM.
Cell Culture. All cells were maintained in an incubator at 37 degrees C and 5% CO2 with 95% humidity. The PDC lines were cultured according to standard operating procedures established by the NCI PDMR. All PDCs were thawed and cultured in Matrigel-coated flasks prepared with a working solution of 1X Ham's F-12 nutrient mix, without supplementation (Invitrogen, Waltham, MA, cat. 11765054), 100 U/mL penicillin-streptomycin (Invitrogen, cat. 15140122), and 2.5% Matrigel (Corning Inc., Corning, NY, cat. 354248) for the first three passages. The 362531-283-R-J2-PDC and 782815-120-R-J1-PDC lines were cultured in 6C/Colon 1B media, which includes advanced DMEM/F-12 (Thermo Fisher Scientific, cat. 12634028), 10 mM HEPES (Thermo Fisher Scientific, cat. 15630080), 1X GlutaMAX supplement (Thermo Fisher Scientific, cat. 35050061), 0.1 mg/mL primocin (InvivoGen, San Diego, CA, cat. ant-pm-2), 10% defined fetal bovine serum, heat inactivated (HyClone Laboratories Inc., Logan, UT, cat. SH30070.03HI), 50% L-WRN conditioned media (ATCC, cat. CRL-3276), 1.25 mM N-Acetyl-L-cysteine (Sigma-Aldrich, cat. A9165), 10 mM nicotinamide (Sigma-Aldrich, cat. N0636), 1X B-27 supplement (Thermo Fisher Scientific, cat. 17504044), 1X N-2 supplement (Thermo Fisher Scientific, cat. 17502048), 50 ng/mL human EGF (Thermo Fisher Scientific, cat. PHG0311), and 10 microM Y-27632 dihydrochloride (Tocris Bioscience, cat. 1254). The K12877-001-R-J1-PDC line was cultured in 6I media, which includes all 6C/Colon 1B media plus 10 ng/mL human FGF-10 (PeproTech, cat. 100-26), 1 ng/mL human FGF-2 (PeproTech, cat. 100-18B), 1 µM prostaglandin E2 (Tocris Bioscience, cat. 2296), […] hydrocortisone (Sigma-Aldrich, cat. H4001), and […] bovine insulin (Sigma-Aldrich, cat. I6634). The K86415-001-R-J1-PDC line was cultured in 6D media, which includes all 6C/Colon 1B media components minus the L-WRN conditioned media. The 485176-168-R4-J1-PDC was cultured in PANC media, which includes all 6C/Colon 1B media plus 100 ng/mL human FGF-10 (PeproTech, cat. 100-26), 500 nM SB-431542 (Selleckchem, cat. S1067), and 10 nM gastrin (Tocris Bioscience, cat. 3006). […]
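Also: spheroids exposed to compound for 7 days before readout.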
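For viability, T/C in this document: 100% = DMSO vehicle control luminescence.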

- IC50 (curve of first compound, second compound 0.0316 µM): > 1000 nM
- IC50 (curve of first compound, second compound 0.1 µM): > 1000 nM
- IC50 (curve of first compound, second compound 0.316 µM): > 1000 nM
- IC50 (curve of first compound, second compound 1 µM): > 1000 nM
- IC50 (curve of first compound, second compound 3.16 µM): > 1000 nM
- IC50 (curve of first compound, second compound 10 µM): > 1000 nM
Compound: Nc1ccn(C2OC(CO)C(O)C2(F)F)c(=O)n1 (stereo not given) + C#Cc1c(F)ccc2cc(O)cc(-c3ncc4c(N5CC6CCC(C5)N6)nc(OCC56CCCN5CC(F)C6)nc4c3F)c12
- viability, T/C (second compound 0.0316 µM, first compound 0.00316 µM): 95%
- viability, T/C (second compound 0.0316 µM, first compound 0.01 µM): 95.6%
- viability, T/C (second compound 0.0316 µM, first compound 0.0316 µM): 86%
- viability, T/C (second compound 0.0316 µM, first compound 0.1 µM): 79.5%
- viability, T/C (second compound 0.0316 µM, first compound 0.316 µM): 76%
- viability, T/C (second compound 0.0316 µM, first compound 1 µM): 72.6%
- viability, T/C (second compound 0.1 µM, first compound 0.00316 µM): 106%
- viability, T/C (second compound 0.1 µM, first compound 0.01 µM): 96.6%
- viability, T/C (second compound 0.1 µM, first compound 0.0316 µM): 80.4%
- viability, T/C (second compound 0.1 µM, first compound 0.1 µM): 74.9%
- viability, T/C (second compound 0.1 µM, first compound 0.316 µM): 74.9%
- viability, T/C (second compound 0.1 µM, first compound 1 µM): 78.5%
- viability, T/C (second compound 0.316 µM, first compound 0.00316 µM): 98.9%
- viability, T/C (second compound 0.316 µM, first compound 0.01 µM): 93.2%
- viability, T/C (second compound 0.316 µM, first compound 0.0316 µM): 60.9%
- viability, T/C (second compound 0.316 µM, first compound 0.1 µM): 74.8%
- viability, T/C (second compound 0.316 µM, first compound 0.316 µM): 75.8%
- viability, T/C (second compound 0.316 µM, first compound 1 µM): 64.7%
- viability, T/C (second compound 1 µM, first compound 0.00316 µM): 98.6%
- viability, T/C (second compound 1 µM, first compound 0.01 µM): 82.5%
- viability, T/C (second compound 1 µM, first compound 0.0316 µM): 60.1%
- viability, T/C (second compound 1 µM, first compound 0.1 µM): 76.9%
- viability, T/C (second compound 1 µM, first compound 0.316 µM): 75.5%
- viability, T/C (second compound 1 µM, first compound 1 µM): 54.2%
- viability, T/C (second compound 3.16 µM, first compound 0.00316 µM): 82.6%
- viability, T/C (second compound 3.16 µM, first compound 0.01 µM): 70.1%
- viability, T/C (second compound 3.16 µM, first compound 0.0316 µM): 69.5%
- viability, T/C (second compound 3.16 µM, first compound 0.1 µM): 67.1%
- viability, T/C (second compound 3.16 µM, first compound 0.316 µM): 68%
- viability, T/C (second compound 3.16 µM, first compound 1 µM): 54.1%
- viability, T/C (second compound 10 µM, first compound 0.00316 µM): 76.3%
- viability, T/C (second compound 10 µM, first compound 0.01 µM): 67.1%
- viability, T/C (second compound 10 µM, first compound 0.0316 µM): 52.6%
- viability, T/C (second compound 10 µM, first compound 0.1 µM): 54.9%
- viability, T/C (second compound 10 µM, first compound 0.316 µM): 48.5%
- viability, T/C (second compound 10 µM, first compound 1 µM): 49.1%

- IC50 (curve of compound): > 10000 nM
Compound: CC(Nc1ccc2c(c1)OCCn1cc(N3C(=O)OCC3C(F)F)nc1-2)C(N)=O (stereo not given)
- viability, T/C (compound 0.1 µM): 87.7% [middle of 4 runs]
- viability, T/C (compound 0.316 µM): 88.6% [middle of 4 runs]
- viability, T/C (compound 1 µM): 80.3% [middle of 4 runs]
- viability, T/C (compound 3.16 µM): 74.9% [middle of 4 runs]
- viability, T/C (compound 10 µM): 67.4% [middle of 4 runs]

- IC50 (curve of first compound, second compound 0.000949 µM): > 1000 nM
- IC50 (curve of first compound, second compound 0.003 µM): > 1000 nM
- IC50 (curve of first compound, second compound 0.00949 µM): > 1000 nM
- IC50 (curve of first compound, second compound 0.03 µM): 90.2 nM
- IC50 (curve of first compound, second compound 0.0949 µM): < 3.16 nM
- IC50 (curve of first compound, second compound 0.3 µM): < 3.16 nM
Compound: Nc1ccn(C2OC(CO)C(O)C2(F)F)c(=O)n1 (stereo not given) + CCn1c(-c2cc(N3CCN(C)CC3)cnc2C(C)OC)c2c3cc(ccc31)-c1csc(n1)CC(NC(=O)C1CC1C)C(=O)N1CCCC(N1)C(=O)OCC(C)(C)C2
- viability, T/C (second compound 0.000949 µM, first compound 0.00316 µM): 88.9%
- viability, T/C (second compound 0.000949 µM, first compound 0.01 µM): 93.5%
- viability, T/C (second compound 0.000949 µM, first compound 0.0316 µM): 76.6%
- viability, T/C (second compound 0.000949 µM, first compound 0.1 µM): 73.6%
- viability, T/C (second compound 0.000949 µM, first compound 0.316 µM): 67.1%
- viability, T/C (second compound 0.000949 µM, first compound 1 µM): 71.1%
- viability, T/C (second compound 0.003 µM, first compound 0.00316 µM): 101%
- viability, T/C (second compound 0.003 µM, first compound 0.01 µM): 84%
- viability, T/C (second compound 0.003 µM, first compound 0.0316 µM): 70%
- viability, T/C (second compound 0.003 µM, first compound 0.1 µM): 65%
- viability, T/C (second compound 0.003 µM, first compound 0.316 µM): 65.3%
- viability, T/C (second compound 0.003 µM, first compound 1 µM): 61.8%
- viability, T/C (second compound 0.00949 µM, first compound 0.00316 µM): 80.1%
- viability, T/C (second compound 0.00949 µM, first compound 0.01 µM): 62.9%
- viability, T/C (second compound 0.00949 µM, first compound 0.0316 µM): 60.7%
- viability, T/C (second compound 0.00949 µM, first compound 0.1 µM): 57.8%
- viability, T/C (second compound 0.00949 µM, first compound 0.316 µM): 56.9%
- viability, T/C (second compound 0.00949 µM, first compound 1 µM): 52.7%
- viability, T/C (second compound 0.03 µM, first compound 0.00316 µM): 72%
- viability, T/C (second compound 0.03 µM, first compound 0.01 µM): 53.4%
- viability, T/C (second compound 0.03 µM, first compound 0.0316 µM): 56.5%
- viability, T/C (second compound 0.03 µM, first compound 0.1 µM): 47.1%
- viability, T/C (second compound 0.03 µM, first compound 0.316 µM): 52.3%
- viability, T/C (second compound 0.03 µM, first compound 1 µM): 46.1%
- viability, T/C (second compound 0.0949 µM, first compound 0.00316 µM): 42.1%
- viability, T/C (second compound 0.0949 µM, first compound 0.01 µM): 46.2%
- viability, T/C (second compound 0.0949 µM, first compound 0.0316 µM): 40.6%
- viability, T/C (second compound 0.0949 µM, first compound 0.1 µM): 38.6%
- viability, T/C (second compound 0.0949 µM, first compound 0.316 µM): 40.6%
- viability, T/C (second compound 0.0949 µM, first compound 1 µM): 36.4%
- viability, T/C (second compound 0.3 µM, first compound 0.00316 µM): 33.9%
- viability, T/C (second compound 0.3 µM, first compound 0.01 µM): 35%
- viability, T/C (second compound 0.3 µM, first compound 0.0316 µM): 32.5%
- viability, T/C (second compound 0.3 µM, first compound 0.1 µM): 30.1%
- viability, T/C (second compound 0.3 µM, first compound 0.316 µM): 31.4%
- viability, T/C (second compound 0.3 µM, first compound 1 µM): 28.8%
